These compounds were tested on SK-BR-3 (assay: Antiproliferative activity against human SKBR3 cells after 48 to 72 hrs by MTT assay). Conditions: not given.
Format: functional, cell-based

| IC50 | Structure (SMILES) |
| --- | --- |
| 83.7 µM | Cc1ccc(C)c(COc2cc(NC(=O)C3CCCCC3)ccc2NS(C)(=O)=O)c1 |
| 81.7 µM | CCCCCCN(c1ccc(NC(=O)C2CCCCC2)cc1OCc1cc(C)ccc1C)S(C)(=O)=O |
| 45.3 µM | Cc1ccc(C)c(COc2cc(NC(=O)C3CCCCC3)ccc2N(CCCCCCNC(=O)c2ccc3ccccc3c2)S(C)(=O)=O)c1 |
| 2.21 µM | Cc1ccc(C)c(COc2cc(NC(=O)C3CCCCC3)ccc2N(CCCCCCNC(=O)CCCC[C@H]2SC[C@H]3NC(=O)N[C@H]32)S(C)(=O)=O)c1 |
| 6 µM | CCCCCC(=O)NCCCCCCN(c1ccc(NC(=O)C2CCCCC2)cc1OCc1cc(C)ccc1C)S(C)(=O)=O |
| 13 µM | COCCOCCN(c1ccc(NC(=O)C2CCCCC2)cc1OCc1cc(C)ccc1C)S(C)(=O)=O |

Each compound was assayed on SK-BR-3 (assay: Antiproliferative activity against human SKBR3 cells at 100 uM after 48 to 72 hrs by MTT assay). Conditions: sk-br-3, 100 µM.
Format: cell-based

| Structure (SMILES) | Activity |
| --- | --- |
| O=C(O)CCCC[C@@H]1SC[C@@H]2NC(=O)N[C@@H]21 [BIOTIN] | Non-toxic |
